Test results reported in US5786330A, “Peptide compounds which are therapeutically active in the cascade of blood coagulation, process for preparing them and pharmaceutical compositions containing them” (Adir et Compagnie, priority 1993, dated 1998).
*1 amine or outer side, *2 acyl side, *3 side chain or, on linkers, in order; H or OH if unused. Where a SMILES comes first, the peptide text is derived from it. [ ]: non-standard residue; d: D form. Phe(4-PO3H2) = N[C@@H](Cc1ccc(P(=O)(O)O)cc1)C(=O)O; Oic = O=C(O)[C@@H]1C[C@@H]2CCCC[C@@H]2N1; X1 = O=C([C@@H]1C2CCC(CC2)N1[*:1])[*:2]

Tests used:
human thrombin [1] = target: T1, human thrombin (Homo sapiens, UniProt P00734); assay: inhibition of thrombin, chromogenic substrate H-D-Phe-Pip-Arg-pNA (S 2238); format: biochemical; conditions: 20 C, 405 nm
T1 construct: human thrombin (Sigma, specific activity 3230 NIHU/mg); purchased Sigma
Description: (§1) In order to evaluate in vitro the inhibitory activity of the products of the invention on human thrombin (Sigma, specific activity 3230 NIHU/mg), human fibrinogen (purified or plasmatic) (Fg) or the chromogenic substrate H-D-Phe-Pip-Arg-pNA ([…], S 2238, Kabi) were added to a given quantity of thrombin (0.7 or 2 nM) previously incubated with or without the test inhibitor (20 C, 10 min).
(§2) In order to evaluate in vitro the selectivity of these products towards various coagulation serine proteases, the same procedure was applied to purified human plasmin (2 nM, Stago), to purified human activated factor X (2 nM, Stago), to kallikrein (2 nM, sigma), to urokinase (2 nM, sigma), to plasminogen tissue activator (t-PA; 2 nM, Stago) and to purified human activated protein C (2 nM, Stago) using, as substrate, various paranitroanilide-containing peptides. The inhibitors, enzymes and substrates are diluted in the same buffer ([…] phosphate buffer pH 7.4, containing 0.12M sodium chloride and 0.05% bovine serum albumin) and then distributed in a polystyrene microplate in a volume of 50 l.
(§3) The fibrin formed by thrombin or the paranitroanilide liberated by the action of the serin protease is measured spectrophotometrically at 405 nm after reacting for 15 to 30 minutes at 20° C. […] The results are expressed in IC50 value: the concentration in nM which inhibits the enzymatic activity by 50%.

human thrombin [2] = target: T1, human thrombin; assay: inhibition of thrombin, fibrinogen as substrate; format: biochemical; conditions: 20 C, fibrin measured at 405 nm
Description: as §1, §2, §3

[3] = target: T2, plasminogen tissue activator (t-PA) (Homo sapiens, UniProt P00750); assay: selectivity towards coagulation serine proteases: t-PA; format: biochemical; conditions: 2 nM enzyme, paranitroanilide-containing peptide substrate; read-out: IC50 with respect to t-PA
T2 construct: purchased Stago
Description: as §2, §3

[4] = system: activated cephalin time (ACT), OFA rats; assay: activated cephalin time (ACT) ex vivo in OFA rats; conditions: rat, 0.8 mg/kg i.v.
Description: (§4) In the presence of a standard quantity of thrombin or activated cephalin, a normal plasma coagulates within a defined and constant time called thrombin time (TT) and activated cephalin time (ACT) respectively. The extension of these coagulation times by pharmacological substances reflects an anticoagulant effect.
(§5) The effect of the products was tested ex vivo in OFA rats anesthetized with sodium pentobarbital (60 mg/kg i.p.) The carotid artery and the jugular vein are catheterized. After installation of the catheters, 1.5 cm^3 of arterial blood are collected over citrate (0.109M). 30 minutes later, the test product is administered in a volume of 1 ml by i.v. Arterial samples (1.5 cm^3) are then collected at […], 3 min, 5 min, 15 min, 30 min and 60 min. At each collection of sample, 1.5 cm^3 of citrated physiological saline is reinjected into the animal via the carotid.

[5] = system: activated cephalin time (ACT), human plasma; assay: activated cephalin time (ACT) in vitro on human plasma; format: biochemical; conditions: human plasma low in platelets, citrate
Description: as §4
(§6) The in vitro effect of the products of the invention was measured on human plasma. Blood was collected by venous puncture in a tube containing citrate. After decantation (1200 g, 10 min), the plasma low in platelets is decanted so as to then carry out the coagulation tests. […] The compound of Example 1 doubles the TT at the concentration of […] and the ACT at the concentration of […].

purified human plasmin = target: T3, purified human plasmin (Homo sapiens, UniProt P00747); assay: selectivity towards coagulation serine proteases: plasmin; format: biochemical; conditions: 2 nM enzyme, paranitroanilide-containing peptide substrate; read-out: IC50 with respect to plasmin
T3 construct: purified human plasmin (2 nM, Stago); purchased Stago
Description: as §2, §3

male OFA rats = assay: venous thrombosis induced by ligation of the vena cava inferior (weight of the clot); format: in vivo; conditions: rat, clot withdrawn 25 minutes after ligation
Description: The test animals are anesthetized by administration of sodium pentobarbital (50 mg/kg i.p.). 15 minutes before the ligation, the animals are treated with the test products via the i.v. route. The clot is withdrawn from the vena cava 25 minutes after the ligation, it is weighed after desiccation (24 hours at 60 C.).

kallikrein = assay: selectivity towards coagulation serine proteases: kallikrein; format: biochemical; conditions: 2 nM enzyme, paranitroanilide-containing peptide substrate; read-out: IC50 with respect to kallikrein
Description: as §2, §3

[6] = target: T4, purified human activated protein C (Homo sapiens, UniProt P04070); assay: selectivity towards coagulation serine proteases: activated protein C; format: biochemical; conditions: 2 nM enzyme, paranitroanilide-containing peptide substrate; read-out: IC50 with respect to activated protein C
T4 construct: purchased Stago
Description: as §2, §3

urokinase = target: T5, urokinase (Homo sapiens, UniProt P00749); assay: selectivity towards coagulation serine proteases: urokinase; format: biochemical; conditions: 2 nM enzyme, paranitroanilide-containing peptide substrate; read-out: IC50 with respect to urokinase
T5 construct: purchased sigma
Description: as §2, §3

[7] = system: thrombin time (TT), human plasma; assay: thrombin time (TT) in vitro on human plasma; format: biochemical; conditions: human plasma low in platelets, citrate
Description: as §4, §6

[8] = system: thrombin time (TT), OFA rats; assay: thrombin time (TT) ex vivo in OFA rats; conditions: rat, 0.8 mg/kg i.v.
Description: as §4, §5

[9] = target: T6, purified human activated factor X (Homo sapiens, UniProt P00742); assay: selectivity towards coagulation serine proteases: activated factor X; format: biochemical; conditions: 2 nM enzyme, paranitroanilide-containing peptide substrate; read-out: IC50 with respect to activated factor X
T6 construct: purchased Stago
Description: as §2, §3

T2 sequence (P00750 23-562 limits assumed, species assumed): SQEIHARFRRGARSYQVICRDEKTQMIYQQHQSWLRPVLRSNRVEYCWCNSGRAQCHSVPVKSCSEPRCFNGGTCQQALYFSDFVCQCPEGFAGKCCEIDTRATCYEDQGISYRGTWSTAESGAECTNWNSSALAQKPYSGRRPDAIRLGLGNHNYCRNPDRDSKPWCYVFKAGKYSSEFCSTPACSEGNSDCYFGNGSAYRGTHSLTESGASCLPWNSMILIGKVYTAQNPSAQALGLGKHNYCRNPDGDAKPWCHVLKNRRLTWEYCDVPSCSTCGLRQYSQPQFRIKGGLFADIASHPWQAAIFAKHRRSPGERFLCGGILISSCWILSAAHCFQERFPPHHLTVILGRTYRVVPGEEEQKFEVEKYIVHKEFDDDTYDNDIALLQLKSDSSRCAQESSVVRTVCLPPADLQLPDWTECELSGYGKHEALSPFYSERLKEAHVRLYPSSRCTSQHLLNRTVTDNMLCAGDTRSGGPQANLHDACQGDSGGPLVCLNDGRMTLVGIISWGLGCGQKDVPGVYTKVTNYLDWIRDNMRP
T6 sequence (P00742 235-488 limits assumed): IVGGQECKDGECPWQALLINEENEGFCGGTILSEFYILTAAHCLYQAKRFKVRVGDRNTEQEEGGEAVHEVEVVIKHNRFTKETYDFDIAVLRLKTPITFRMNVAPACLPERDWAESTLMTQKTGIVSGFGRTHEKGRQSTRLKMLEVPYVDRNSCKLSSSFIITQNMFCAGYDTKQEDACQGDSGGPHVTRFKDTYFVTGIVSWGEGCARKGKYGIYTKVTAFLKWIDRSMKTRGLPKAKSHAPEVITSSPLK
T6 sequence (P00742 41-179 limits assumed): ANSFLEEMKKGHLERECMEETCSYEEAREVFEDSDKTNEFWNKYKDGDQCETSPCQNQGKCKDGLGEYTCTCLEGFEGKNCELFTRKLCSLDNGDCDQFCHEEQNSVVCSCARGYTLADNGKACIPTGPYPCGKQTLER
T3 sequence (P00747 581-810 limits assumed): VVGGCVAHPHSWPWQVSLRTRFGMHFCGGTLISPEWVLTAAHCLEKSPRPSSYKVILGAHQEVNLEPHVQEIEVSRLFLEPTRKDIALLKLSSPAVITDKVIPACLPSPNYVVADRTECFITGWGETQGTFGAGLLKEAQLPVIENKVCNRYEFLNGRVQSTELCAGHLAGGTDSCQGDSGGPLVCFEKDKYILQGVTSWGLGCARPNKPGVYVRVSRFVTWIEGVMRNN
T3 sequence (P00747 97-580 limits assumed): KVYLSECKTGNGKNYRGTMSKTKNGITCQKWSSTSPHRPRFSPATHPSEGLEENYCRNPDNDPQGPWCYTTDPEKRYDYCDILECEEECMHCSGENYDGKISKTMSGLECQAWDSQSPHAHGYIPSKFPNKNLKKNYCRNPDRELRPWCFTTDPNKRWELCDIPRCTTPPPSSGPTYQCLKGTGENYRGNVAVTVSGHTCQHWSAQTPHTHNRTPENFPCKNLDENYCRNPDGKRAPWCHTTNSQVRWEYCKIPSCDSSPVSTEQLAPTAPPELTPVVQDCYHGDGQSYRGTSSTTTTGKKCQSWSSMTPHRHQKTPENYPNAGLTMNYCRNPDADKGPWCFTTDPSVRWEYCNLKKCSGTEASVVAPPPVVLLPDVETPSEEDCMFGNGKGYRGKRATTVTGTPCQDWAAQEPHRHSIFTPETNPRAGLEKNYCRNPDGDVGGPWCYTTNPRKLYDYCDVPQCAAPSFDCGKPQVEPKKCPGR
T4 sequence (P04070 212-450 limits assumed): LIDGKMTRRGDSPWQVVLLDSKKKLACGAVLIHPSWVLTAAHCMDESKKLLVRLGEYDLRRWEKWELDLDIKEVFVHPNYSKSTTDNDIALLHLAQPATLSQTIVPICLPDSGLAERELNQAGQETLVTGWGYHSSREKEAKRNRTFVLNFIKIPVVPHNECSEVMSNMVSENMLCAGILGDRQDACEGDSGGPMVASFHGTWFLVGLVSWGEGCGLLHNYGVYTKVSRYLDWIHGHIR
T4 sequence (P04070 43-197 limits assumed): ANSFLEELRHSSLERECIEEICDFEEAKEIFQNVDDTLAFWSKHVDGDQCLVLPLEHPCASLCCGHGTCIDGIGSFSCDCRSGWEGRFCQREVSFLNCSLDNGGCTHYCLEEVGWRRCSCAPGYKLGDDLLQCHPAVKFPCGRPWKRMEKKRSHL

## CC[C@H](C)[C@H](NC(=O)[C@@H]1C2CCC(CC2)N1C(=O)[C@H](CCC(=O)O)NC(=O)[C@H](Cc1ccccc1)NC(=O)[C@H](CC(=O)O)NC(=O)CNC(=O)[C@H](CC(N)=O)NC(=O)CNC(=O)CNC(=O)CNC(=O)CNC(=O)[C@@H]1CCCN1C(=O)[C@H](CCCNC(=N)N)NC(=O)[C@@H]1CCCN1C(=O)[C@H](N)Cc1ccccc1)C(=O)N1CCC[C@H]1C(=O)N[C@@H](CCC(=O)O)C(=O)N[C@@H](CCC(=O)O)C(=O)N[C@@H](Cc1ccc(P(=O)(O)O)cc1)C(=O)N[C@@H](CC(C)C)C(=O)N[C@H](CCC(=O)O)C(=O)O [Example 1, H-phe-Pro-Arg-Pro-(Gly)4 -Asn-Gly-Asp-Phe-Glu-Abo-Ile-Pro-(Glu)2 -Phe(pPO3 H2)-Leu-glu-OH] (H-[dF]PRPGGGGNGDFE[X1]IPEE[Phe(4-PO3H2)]L[dE]-OH)
Human thrombin [1]
  IC50: 18 nM
Human thrombin [2]
  IC50: 6.1 nM

## CC[C@H](C)[C@H](NC(=O)[C@H](CCC(=O)O)NC(=O)[C@H](CCC(=O)O)NC(=O)[C@H](Cc1ccccc1)NC(=O)[C@H](CC(=O)O)NC(=O)CNC(=O)[C@H](CC(N)=O)NC(=O)CNC(=O)CNC(=O)CNC(=O)CNC(=O)[C@@H]1CCCN1C(=O)[C@H](CCCNC(=N)N)NC(=O)[C@@H]1CCCN1C(=O)[C@H](N)Cc1ccccc1)C(=O)N1CCC[C@H]1C(=O)N[C@@H](CCC(=O)O)C(=O)N[C@@H](CCC(=O)O)C(=O)N[C@@H](Cc1ccc(O)cc1)C(=O)N[C@@H](CC(C)C)C(=O)O [hirulog-1]
[3]
  IC50: > 33000 nM
[4]; 1.5 min
  Increase in the ACT (multiplicative factor): 3.8
[4]; 3 min
  Increase in the ACT (multiplicative factor): 3.2
[4]; 5 min
  Increase in the ACT (multiplicative factor): 2.6
[4]; 15 min
  Increase in the ACT (multiplicative factor): 2.1
[4]; 30 min
  Increase in the ACT (multiplicative factor): 1.6
[4]; 60 min
  Increase in the ACT (multiplicative factor): 1.3
[5]
  concentration that doubles the ACT: 0.2 M
Purified human plasmin
  IC50: > 33000 nM
Male OFA rats; 0.1 mg/kg i.v. 15 minutes before ligation
  Decrease in the weight of the clot in %: -0%
Male OFA rats; 1 mg/kg i.v. 15 minutes before ligation
  Decrease in the weight of the clot in %: -46%
kallikrein
  IC50: > 33000 nM
[6]
  IC50: > 33000 nM
urokinase
  IC50: > 33000 nM
[7]
  concentration that doubles the TT: 0.07 M
[8]; 1.5 min
  Increase in the TT (multiplicative factor): 13
[8]; 3 min
  Increase in the TT (multiplicative factor): 11
[8]; 5 min
  Increase in the TT (multiplicative factor): 9.8
[8]; 15 min
  Increase in the TT (multiplicative factor): 6.6
[8]; 30 min
  Increase in the TT (multiplicative factor): 4.2
[8]; 60 min
  Increase in the TT (multiplicative factor): 2.2
[9]
  IC50: > 33000 nM

## CC[C@H](C)[C@H](NC(=O)[C@@H]1C2CCC(CC2)N1C(=O)[C@H](CCC(=O)O)NC(=O)[C@H](Cc1ccccc1)NC(=O)[C@H](CC(=O)O)NC(=O)CNC(=O)[C@H](CC(N)=O)NC(=O)CNC(=O)CNC(=O)CNC(=O)CNC(=O)[C@@H]1CCCN1C(=O)[C@H](CCCNC(=N)N)NC(=O)[C@@H]1C[C@@H]2CCCC[C@@H]2N1C(=O)[C@H](N)Cc1ccccc1)C(=O)N1CCC[C@H]1C(=O)N[C@@H](CCC(=O)O)C(=O)N[C@@H](CCC(=O)O)C(=O)N[C@@H](Cc1ccc(P(=O)(O)O)cc1)C(=O)N[C@@H](CC(C)C)C(=O)N[C@H](CCC(=O)O)C(=O)O [Example 2, H-phe-Oic-Arg-Pro-(Gly)4 -Asn-Gly-Asp-Phe-Glu-Abo-Ile-Pro-(Glu)2 -Phe(pPO3 H2)-Leu-glu-OH] (H-[dF][Oic]RPGGGGNGDFE[X1]IPEE[Phe(4-PO3H2)]L[dE]-OH)
Human thrombin [1]
  IC50: 15 nM
Human thrombin [2]
  IC50: 4 nM
